Assay results reported in ChEMBL document CHEMBL5465560, “Selectivity Literature for EUbOPEN Chemogenomic Library” (2024).
Each block holds one molecule with its values, some of them ahead of it.

Legend:
[1] = molecular target: Mitogen-activated protein kinase 1 (Homo sapiens, UniProt P28482); assay: Selectivity interaction (Millipore kinase profiler) EUB0000124b MAPK1; details: at 10 µM
[2] = molecular target: Protein-tyrosine kinase 2-beta (Homo sapiens) (UniProt Q14289); assay: Selectivity interaction (ActivX KiNativ screen (kinase selectivity in THP-1 cell lysates)) EUB0000639a PTK2B; type: subcellular; details: lysate, at 0.04 µM
Protein-tyrosine kinase 2-beta (Homo sapiens), sequence (Q14289 whole entry, looked up, canonical isoform): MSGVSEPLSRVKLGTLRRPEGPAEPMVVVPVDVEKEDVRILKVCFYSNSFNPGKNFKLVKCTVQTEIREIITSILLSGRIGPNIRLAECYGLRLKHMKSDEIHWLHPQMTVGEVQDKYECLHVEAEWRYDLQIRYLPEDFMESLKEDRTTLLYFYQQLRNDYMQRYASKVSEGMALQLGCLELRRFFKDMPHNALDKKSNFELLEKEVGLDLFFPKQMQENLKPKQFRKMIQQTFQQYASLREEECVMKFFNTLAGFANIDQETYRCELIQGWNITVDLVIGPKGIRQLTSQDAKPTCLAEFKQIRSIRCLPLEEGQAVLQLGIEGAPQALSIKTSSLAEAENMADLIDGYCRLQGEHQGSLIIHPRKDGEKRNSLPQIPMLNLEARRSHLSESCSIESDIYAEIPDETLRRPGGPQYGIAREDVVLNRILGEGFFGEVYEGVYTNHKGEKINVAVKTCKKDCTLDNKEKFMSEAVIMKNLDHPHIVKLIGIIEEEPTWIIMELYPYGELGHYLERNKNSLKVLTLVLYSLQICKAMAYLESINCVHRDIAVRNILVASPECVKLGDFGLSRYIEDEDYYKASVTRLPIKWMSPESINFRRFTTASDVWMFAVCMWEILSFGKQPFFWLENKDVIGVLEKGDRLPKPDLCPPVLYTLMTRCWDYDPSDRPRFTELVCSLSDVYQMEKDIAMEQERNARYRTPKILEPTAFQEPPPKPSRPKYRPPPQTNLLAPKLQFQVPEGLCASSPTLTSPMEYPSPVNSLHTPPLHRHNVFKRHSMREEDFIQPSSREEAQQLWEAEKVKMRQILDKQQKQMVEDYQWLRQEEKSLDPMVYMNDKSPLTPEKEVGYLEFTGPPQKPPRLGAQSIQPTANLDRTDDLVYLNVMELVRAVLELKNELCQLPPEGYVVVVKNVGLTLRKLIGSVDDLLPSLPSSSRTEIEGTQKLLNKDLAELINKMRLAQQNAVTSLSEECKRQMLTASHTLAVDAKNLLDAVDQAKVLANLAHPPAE

[3] = molecular target: Phosphatidylinositol 4,5-bisphosphate 3-kinase catalytic subunit beta isoform (Homo sapiens) (UniProt P42338); assay: Selectivity interaction (KinomeScan (DiscoverX)) EUB0000877a PIK3CB; details: at 10 µM
Phosphatidylinositol 4,5-bisphosphate 3-kinase catalytic subunit beta isoform (Homo sapiens), sequence (P42338 whole entry, looked up, canonical isoform): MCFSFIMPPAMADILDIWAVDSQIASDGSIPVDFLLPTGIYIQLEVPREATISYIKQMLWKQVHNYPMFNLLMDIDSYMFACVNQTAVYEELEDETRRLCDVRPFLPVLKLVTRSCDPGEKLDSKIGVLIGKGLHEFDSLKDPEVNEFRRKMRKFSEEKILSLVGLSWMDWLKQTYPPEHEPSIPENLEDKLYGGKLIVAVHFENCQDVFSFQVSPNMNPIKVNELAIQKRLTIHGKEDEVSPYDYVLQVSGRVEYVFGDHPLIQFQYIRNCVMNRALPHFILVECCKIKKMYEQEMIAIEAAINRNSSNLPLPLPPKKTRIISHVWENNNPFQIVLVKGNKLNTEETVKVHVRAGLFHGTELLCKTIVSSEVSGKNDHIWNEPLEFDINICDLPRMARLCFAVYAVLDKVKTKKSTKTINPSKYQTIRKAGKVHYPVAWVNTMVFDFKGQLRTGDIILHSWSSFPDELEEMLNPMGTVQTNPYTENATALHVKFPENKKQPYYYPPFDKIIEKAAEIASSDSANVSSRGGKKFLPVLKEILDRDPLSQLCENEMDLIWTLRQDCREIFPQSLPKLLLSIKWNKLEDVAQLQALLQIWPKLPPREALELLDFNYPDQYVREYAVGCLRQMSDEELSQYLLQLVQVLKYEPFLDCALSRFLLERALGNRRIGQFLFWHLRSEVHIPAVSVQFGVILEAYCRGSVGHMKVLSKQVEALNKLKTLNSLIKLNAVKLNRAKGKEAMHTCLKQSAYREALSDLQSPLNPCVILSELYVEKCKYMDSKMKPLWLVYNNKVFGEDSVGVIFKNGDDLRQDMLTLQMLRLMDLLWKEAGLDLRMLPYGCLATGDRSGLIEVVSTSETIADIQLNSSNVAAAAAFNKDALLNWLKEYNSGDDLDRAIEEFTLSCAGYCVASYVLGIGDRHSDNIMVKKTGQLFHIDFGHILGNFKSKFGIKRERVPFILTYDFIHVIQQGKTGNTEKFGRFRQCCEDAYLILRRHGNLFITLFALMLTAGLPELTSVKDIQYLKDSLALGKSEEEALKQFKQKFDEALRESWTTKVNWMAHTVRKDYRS

[4] = molecular target: Protein kinase C theta type (Homo sapiens, UniProt Q04759); assay: Selectivity interaction (Kinase panel (33PanQinase(R) Activity Assay)) EUB0000877a PRKCQ
Protein kinase C theta type, sequence (Q04759 whole entry): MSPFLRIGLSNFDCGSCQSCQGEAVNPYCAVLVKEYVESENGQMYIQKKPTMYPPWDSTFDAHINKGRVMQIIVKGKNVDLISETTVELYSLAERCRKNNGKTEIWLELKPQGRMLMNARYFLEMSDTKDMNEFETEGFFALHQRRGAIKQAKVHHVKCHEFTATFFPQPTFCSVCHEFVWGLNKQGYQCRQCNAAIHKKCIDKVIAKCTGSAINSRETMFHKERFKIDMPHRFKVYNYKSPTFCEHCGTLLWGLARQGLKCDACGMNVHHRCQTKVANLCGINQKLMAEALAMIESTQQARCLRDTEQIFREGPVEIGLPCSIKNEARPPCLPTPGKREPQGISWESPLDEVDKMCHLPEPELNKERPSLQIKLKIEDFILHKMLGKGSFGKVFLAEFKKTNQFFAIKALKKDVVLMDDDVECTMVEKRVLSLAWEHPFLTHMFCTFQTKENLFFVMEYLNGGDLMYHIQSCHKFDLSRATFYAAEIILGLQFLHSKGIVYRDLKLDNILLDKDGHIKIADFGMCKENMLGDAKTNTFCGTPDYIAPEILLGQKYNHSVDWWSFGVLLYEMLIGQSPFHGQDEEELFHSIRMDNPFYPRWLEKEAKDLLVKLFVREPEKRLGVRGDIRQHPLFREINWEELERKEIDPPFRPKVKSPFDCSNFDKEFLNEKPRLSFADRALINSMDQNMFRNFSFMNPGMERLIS

[5] = molecular target: T1, Aurora kinase C (Homo sapiens) (UniProt Q9UQB9); assay: Selectivity interaction (Kinase panel (Z-LYTE Assay)) EUB0001632a AURKC; details: at 10 µM
T1 sequence (whole entry): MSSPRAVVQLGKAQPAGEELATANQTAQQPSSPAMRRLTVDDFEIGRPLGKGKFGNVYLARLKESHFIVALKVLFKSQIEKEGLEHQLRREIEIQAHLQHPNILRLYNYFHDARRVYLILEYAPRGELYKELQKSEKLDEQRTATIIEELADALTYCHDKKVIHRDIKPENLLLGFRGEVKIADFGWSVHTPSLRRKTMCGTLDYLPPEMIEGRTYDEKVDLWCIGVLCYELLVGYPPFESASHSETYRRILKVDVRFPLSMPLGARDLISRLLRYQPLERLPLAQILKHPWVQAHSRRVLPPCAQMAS

[6] = molecular target: Sodium-dependent dopamine transporter (Homo sapiens, UniProt Q01959); assay: Selectivity interaction (Panel of non-epigenetic targets (kinases, GPCRs, ion channels, and transporters, Eurofins) ) EUB0000271b SLC6A3; details: at 1 µM
[7] = molecular target: MAP kinase-interacting serine/threonine-protein kinase 1 (Homo sapiens) (UniProt Q9BUB5); assay: Selectivity interaction (KinomeScan (DiscoverX)) EUB0000092b MKNK1; details: at 10 µM
MAP kinase-interacting serine/threonine-protein kinase 1 (Homo sapiens), sequence (Q9BUB5 whole entry, looked up): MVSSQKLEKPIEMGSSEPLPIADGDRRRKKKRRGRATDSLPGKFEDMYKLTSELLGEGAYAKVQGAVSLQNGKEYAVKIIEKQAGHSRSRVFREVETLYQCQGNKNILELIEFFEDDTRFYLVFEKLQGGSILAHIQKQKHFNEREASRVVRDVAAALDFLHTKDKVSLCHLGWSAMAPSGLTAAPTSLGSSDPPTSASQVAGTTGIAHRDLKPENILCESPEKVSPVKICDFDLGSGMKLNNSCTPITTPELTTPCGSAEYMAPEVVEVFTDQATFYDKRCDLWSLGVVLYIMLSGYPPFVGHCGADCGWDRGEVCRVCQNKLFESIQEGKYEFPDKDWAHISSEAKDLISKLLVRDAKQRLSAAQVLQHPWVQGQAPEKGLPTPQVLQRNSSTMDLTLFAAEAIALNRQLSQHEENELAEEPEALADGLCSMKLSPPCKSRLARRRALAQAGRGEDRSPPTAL

[8] = molecular target: Ribosomal protein S6 kinase alpha-2 (Homo sapiens) (UniProt Q15349); assay: Selectivity interaction (Upstate Kinase Profiler service (Millipore)) EUB0000056c RPS6KA2; details: at 1 µM
[9] = molecular target: T2, Serine/threonine-protein kinase tousled-like 1 (Homo sapiens) (UniProt Q9UKI8); assay: Selectivity interaction (KinomeScan (DiscoverX)) EUB0000618a TLK1; details: at 10 µM
T2 sequence (whole entry): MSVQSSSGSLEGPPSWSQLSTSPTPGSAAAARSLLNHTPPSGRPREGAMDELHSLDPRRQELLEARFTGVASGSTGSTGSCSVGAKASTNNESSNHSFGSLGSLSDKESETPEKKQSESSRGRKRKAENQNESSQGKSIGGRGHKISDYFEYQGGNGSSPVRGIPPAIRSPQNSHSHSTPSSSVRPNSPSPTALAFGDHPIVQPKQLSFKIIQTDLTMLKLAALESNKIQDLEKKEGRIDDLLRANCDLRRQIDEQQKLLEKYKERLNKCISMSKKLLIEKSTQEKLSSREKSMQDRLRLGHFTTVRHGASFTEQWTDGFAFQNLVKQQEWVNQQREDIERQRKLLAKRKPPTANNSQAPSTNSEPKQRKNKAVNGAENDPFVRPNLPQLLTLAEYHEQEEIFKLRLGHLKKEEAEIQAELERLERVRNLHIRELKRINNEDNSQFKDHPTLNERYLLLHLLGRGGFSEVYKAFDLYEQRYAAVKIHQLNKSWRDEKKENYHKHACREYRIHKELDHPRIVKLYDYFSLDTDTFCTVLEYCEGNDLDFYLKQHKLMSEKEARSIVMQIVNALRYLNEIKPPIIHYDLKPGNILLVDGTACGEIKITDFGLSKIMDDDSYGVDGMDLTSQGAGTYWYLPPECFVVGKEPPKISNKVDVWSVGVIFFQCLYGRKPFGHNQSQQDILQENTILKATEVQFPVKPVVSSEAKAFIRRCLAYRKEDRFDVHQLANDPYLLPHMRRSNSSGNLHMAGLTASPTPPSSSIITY

[10] = molecular target: Fibroblast growth factor receptor 4 (Homo sapiens, UniProt P22455); assay: Selectivity interaction (SelectScreen profiling (Invitrogen)) EUB0000607a FGFR4; details: at 2 µM
Fibroblast growth factor receptor 4, sequence (P22455 22-802 limits assumed): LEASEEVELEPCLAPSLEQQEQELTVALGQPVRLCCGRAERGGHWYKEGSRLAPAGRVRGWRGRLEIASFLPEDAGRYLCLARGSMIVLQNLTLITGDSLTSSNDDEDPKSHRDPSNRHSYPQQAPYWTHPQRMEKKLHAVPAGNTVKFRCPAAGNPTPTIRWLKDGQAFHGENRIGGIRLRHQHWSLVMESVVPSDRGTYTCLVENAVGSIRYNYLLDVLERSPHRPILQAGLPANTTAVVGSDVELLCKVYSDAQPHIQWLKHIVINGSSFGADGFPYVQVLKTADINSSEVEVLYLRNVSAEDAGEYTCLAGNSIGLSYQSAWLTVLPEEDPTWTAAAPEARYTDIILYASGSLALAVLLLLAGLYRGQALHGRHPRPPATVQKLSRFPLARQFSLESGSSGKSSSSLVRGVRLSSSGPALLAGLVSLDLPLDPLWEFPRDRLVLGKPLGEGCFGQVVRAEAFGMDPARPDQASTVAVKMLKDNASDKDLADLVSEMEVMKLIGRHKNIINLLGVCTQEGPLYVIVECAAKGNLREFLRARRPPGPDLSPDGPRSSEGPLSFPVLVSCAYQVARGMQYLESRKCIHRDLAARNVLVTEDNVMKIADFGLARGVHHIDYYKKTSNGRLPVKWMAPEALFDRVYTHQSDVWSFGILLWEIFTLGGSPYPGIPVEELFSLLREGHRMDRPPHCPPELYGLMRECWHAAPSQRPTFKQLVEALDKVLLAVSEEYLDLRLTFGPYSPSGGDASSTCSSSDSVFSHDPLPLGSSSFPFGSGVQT

[11] = molecular target: T3, Inhibitor of nuclear factor kappa-B kinase subunit beta (Homo sapiens) (UniProt O14920); assay: Selectivity interaction (KinomeScan (DiscoverX)) EUB0000607a IKBKB; details: at 10 µM
T3 sequence (whole entry): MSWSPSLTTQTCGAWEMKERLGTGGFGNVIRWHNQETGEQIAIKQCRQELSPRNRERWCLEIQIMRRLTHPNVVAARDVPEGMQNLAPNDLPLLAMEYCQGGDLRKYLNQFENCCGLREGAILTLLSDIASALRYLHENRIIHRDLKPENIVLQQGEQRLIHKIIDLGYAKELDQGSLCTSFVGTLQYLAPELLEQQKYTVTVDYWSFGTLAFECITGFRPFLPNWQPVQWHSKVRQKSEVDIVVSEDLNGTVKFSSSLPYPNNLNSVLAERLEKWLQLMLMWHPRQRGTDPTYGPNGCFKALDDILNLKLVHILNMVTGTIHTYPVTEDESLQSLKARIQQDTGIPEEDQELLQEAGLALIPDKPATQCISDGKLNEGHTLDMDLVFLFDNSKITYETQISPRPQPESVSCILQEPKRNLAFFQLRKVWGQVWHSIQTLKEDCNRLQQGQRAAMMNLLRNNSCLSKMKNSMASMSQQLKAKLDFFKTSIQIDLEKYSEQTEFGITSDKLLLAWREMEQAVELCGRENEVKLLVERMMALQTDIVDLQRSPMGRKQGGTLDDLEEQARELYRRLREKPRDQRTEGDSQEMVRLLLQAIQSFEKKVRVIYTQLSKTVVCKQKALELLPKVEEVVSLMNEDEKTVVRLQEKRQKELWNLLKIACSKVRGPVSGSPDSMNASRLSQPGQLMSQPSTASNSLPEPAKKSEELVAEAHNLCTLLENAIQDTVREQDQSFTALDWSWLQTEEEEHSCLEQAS

[12] = molecular target: Casein kinase II subunit alpha (Homo sapiens, UniProt P68400); assay: Selectivity interaction (Kinase panel (KiNativ target engagement assay in Jurkat cells)) EUB0001635a CSNK2A1; type: cell-based; details: Selectivity number of off-targets 0.0, Selectivity number of targets 233.0, Source Knowledge https://www.sciencedirect.com/science/article/pii/S2451945619300674?via%3Dihub, at 1 µM
Casein kinase II subunit alpha, sequence (P68400 whole entry, looked up): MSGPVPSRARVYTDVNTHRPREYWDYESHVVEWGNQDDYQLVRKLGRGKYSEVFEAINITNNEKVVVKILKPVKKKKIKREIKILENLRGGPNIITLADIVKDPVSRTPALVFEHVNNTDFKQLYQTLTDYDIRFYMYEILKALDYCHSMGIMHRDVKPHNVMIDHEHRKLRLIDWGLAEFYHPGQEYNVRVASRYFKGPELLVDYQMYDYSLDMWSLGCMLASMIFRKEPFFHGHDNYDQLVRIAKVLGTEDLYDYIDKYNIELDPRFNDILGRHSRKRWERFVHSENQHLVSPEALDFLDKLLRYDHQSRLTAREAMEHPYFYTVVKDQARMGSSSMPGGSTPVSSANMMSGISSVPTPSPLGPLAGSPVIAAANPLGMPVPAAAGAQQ

Mitogen-activated protein kinase 1, sequence (P28482 whole entry): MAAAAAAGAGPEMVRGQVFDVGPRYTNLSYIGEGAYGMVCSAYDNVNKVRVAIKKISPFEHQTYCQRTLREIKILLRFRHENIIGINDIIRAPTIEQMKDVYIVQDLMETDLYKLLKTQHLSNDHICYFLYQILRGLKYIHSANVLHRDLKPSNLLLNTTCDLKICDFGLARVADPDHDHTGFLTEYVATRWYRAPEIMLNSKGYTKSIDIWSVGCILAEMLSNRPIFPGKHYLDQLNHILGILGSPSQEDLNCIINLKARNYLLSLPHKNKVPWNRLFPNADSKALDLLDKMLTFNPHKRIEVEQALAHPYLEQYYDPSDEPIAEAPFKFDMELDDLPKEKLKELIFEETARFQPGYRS

% of control [1]: 108%
Compound: CC(=O)Nc1cccc(-n2c(=O)n(C3CC3)c(=O)c3c(Nc4ccc(I)cc4F)n(C)c(=O)c(C)c32)c1

% of inhibition [2]: 6.6%
Compound: CC[C@@H]1[C@H](F)C(=O)N[C@@H]1COc1nccc2cc(C(N)=O)c(OC)cc12 [ZIMLOVISERTIB]

% of inhibition [3]: 98% | IC50 [4]: > 10 µM
Compound: CCC(=O)N1CC[C@H](Nc2ncnc3c2CN(c2cnc(OC)c(C(F)(F)F)c2)CC3)C1 [LENIOLISIB]

% of control [5]: 8.76%
Compound: Cn1cc(-n2cnc3c(NCc4nc5cc(Cl)c(Cl)cc5[nH]4)nc(N4CCOCC4)nc32)cn1

Compound: Cc1cc(C)cc([C@@H]2c3cc(C)ccc3NC(=O)CN2C(=O)c2ccc(Br)s2)c1
% of inhibition [6]: 6%

Compound: CCC(=O)N1CCN(c2ccc(-n3c(=O)ccc4cnc5ccc(-c6cnc7ccccc7c6)cc5c43)cc2C(F)(F)F)CC1
% of control [7]: 44%

% of inhibition [8]: 49%
Compound: Cc1ccc(-c2ccc3c(ccc4sc5c(c43)NC[C@@H](C)NC5=O)n2)cn1

Compound: O[C@H]1CC[C@H](Nc2ncc3nc(Nc4c(F)cc(F)cc4F)n([C@H]4CCOC4)c3n2)CC1
% of control [9]: 50%

Compound: CNC(=O)Nc1ccc(-c2nc(N3CC4CCC(C3)O4)c3cnn(C4CCC5(CC4)OCCO5)c3n2)cc1
% of inhibition [10]: 4% | % of control [11]: 79%

Compound: C=CC(=O)Nc1ccc(C(=O)Nc2[nH]nc3c2CN(C(=O)N[C@H](CN(C)C)c2ccccc2)C3(C)C)cc1
% of engagement [12]: -4.8%
